These results are taken from patent US12029751B2, “Therapeutic agent for nervous system disease” (OSAKA UNIVERSITY, priority 2017, dated 2024).

For test [1], the system named is cerebral cortical neurons. In words: TUNEL assay, apoptosis inhibiting effect on cerebral cortical neurons. In kind it is cell-based, rat. The conditions noted are these: after 18 hours. From the text:
Cerebral cortical neurons were collected and cultured by a conventional method. Cerebral cortex was dissected from a fetus of a Sprague-Dawley (SD) rat (18th day of pregnancy) and recovered in ice-cooled Dulbecco's Modified Eagle Medium (DMEM) containing 10% fetal bovine serum (FBS) and 1% penicillin/streptomycin. The pia mater and blood vessels were removed, and the remaining cerebral cortex was transferred to DMEM (containing 1% penicillin/streptomycin and no FBS) and cut into small pieces having a size of 1 mm by surgical scissors. Papain (final concentration, 2 mg/ml) was added to the cell mixture, and the mixture was allowed to react at 37° C. for 30 minutes. DNase I (70 U/ml) was added to the reaction mixture and reaction was carried out for 30 seconds. Then, DMEM containing 10% FBS and 1% penicillin/streptomycin was added to terminate the reaction. The cell mixture was centrifuged at 800 rpm, the residue was re-suspended in DMEM containing 10% FBS and 1% penicillin/streptomycin, and the suspension was seeded on a dish coated with poly-L lysine (PLL). At 4 hours after the cell seeding, the medium was replaced with Neurobasal medium (containing 10% B27 supplement and 1% penicillin/streptomycin).
To the cerebral cortical neurons (Example 1-1) cultured on a PLL-coated 8-well chamber slide, 20 mM glutamic acid and […] methylcobalamin (MeCbl) were added. After 18 hours, the proportion of apoptotic cells was evaluated using Promega's DeadEnd Fluorometric TUNEL System. Cells were fixed with 4% paraformaldehyde (PFA) at 4° C. for 25 minutes. After cells were permeabilized with 0.2% Triton X-100 for 5 minutes, an incubation buffer was added, and the mixture was left stand at 37° C. with light shielding for 60 minutes to label the permeabilized cells. The nuclei were labeled with 4′6-diamidino-2-phenylindole (DAPI). The total cell number and the number of TUNEL-positive cells were determined.

In a further test the test system is Akt-mTOR pathway. In words: Western blot of Akt, 4EBP1 and S6K phosphorylation (mechanism of macrophage induction). In kind it is cell-based, mouse. The following applies: 30 minutes. The procedure: The J774A.1 cells (Example 5-1) were seeded on a dish having a diameter of 6 cm. After 4 days, proteins were collected using a cell lysis buffer containing a cocktail of protease inhibitors. The protein concentration was measured by BCA assay. Then, 50 μg of each sample was subjected to SDS-PAGE, and the electrophoresed proteins were transferred to a polyvinylidene difluoride membrane. The membrane was blocked with a blocking buffer for 1 hour, and then the proteins were allowed to react with primary antibodies at 4° C. overnight. The proteins were further allowed to react with a secondary antibody at room temperature for 1 hour and detected using ECL Western Blotting Detection System. To detect the M1 markers iNOS and IL-1β, lipopolysaccharide (LPS) (100 ng/ml) and methylcobalamin were added at 24 hours before collecting the proteins. To detect the M2 markers Arg1 and CD206, IL-4 (20 ng/ml) and methylcobalamin were added at 72 hours before collecting the proteins.
The mechanism of the macrophage induction (Example 5) by methylcobalamin was analyzed. Specifically, the analysis was carried out as follows. At 30 minutes after IL-4 and methylcobalamin (100 nM and 1 mM) were added, activation of Akt, 4EBP1, and S6K in the Akt-mTOR pathway (one of the major signaling pathways that induce M2 gene expression) was evaluated by Western blot. In the pathway, Akt phosphorylation occurs in response to an upstream signal, and 4EBP1 phosphorylation and S6K phosphorylation further occur through mTORC1 in the downstream. The S6K phosphorylation provides a negative feedback to the upstream of the signaling pathway. Western blot was performed as in Example 5-2, except that IL-4 (20 ng/ml), methylcobalamin, and RAD001 (200 nM) were added at 30 minutes before the proteins were collected, and the primary antibodies for detection were changed.
For orientation: Immunoblotting shows a protein as a band on a membrane.

Test [2] deals with rat spinal cord injury model. In words: BBB score in rat spinal cord injury model (lateral hemisection model). It is filed as in vivo. The following applies: 1 mg/kg/day osmotic minipump; for BBB score: left lower extremity. How it is done: Six-week-old female Wistar rats were used. The rats were purchased from Charles River Laboratories Japan, Inc. (Yokohama, Japan). Anesthesia was performed as follows. A 1:10 dilution of a mixture of three anesthetic agents in physiological saline was administered by intraperitoneal injection. One dose consisted of 0.2 mg/kg of midazolam, 0.015 mg/kg of medetomidine, and 0.25 mg/kg of butorphanol. The rat was placed in a prone position on an operating table, and a dorsal midline incision was made. The T10 vertebral arch was removed to expose the posterior face of the spinal cord, and the left spinal cord was hemisected using a sharp-pointed surgical scalpel (spitz mess). The skin was sutured using a 4-0 nylon thread and the surgery was completed. A comparison was made among three groups: a methylcobalamin treatment group, an untreated group, and a sham group. Immediately after the surgical operation, an osmotic minipump filled with methylcobalamin (1 mg/kg/day) or physiological saline was placed for the methylcobalamin treatment group and the untreated group, respectively, and left in the left dorsal subcutaneous space. The sham group underwent only resection of the Th10 vertebral arch.
Each rat was separately accommodated in a cage, allowed to walk freely, and observed for 5 minutes. According to a conventional method, left-lower-extremity function was evaluated using scores of 0 (no locomotion) to 21 (normal locomotion). The evaluations were performed before surgery, and at 1, 7, 14, 21, and 28 days after the surgery.

[3] abbreviates: IL-4 20 ng/ml + MeCbl 100 nM, listed as methylcobalamin.
The mark [4] stands for this setting: IL-4 20 ng/ml + MeCbl 1 mM + RAD001 (200 nM).
[5] abbreviates: IL-4 20 ng/ml + MeCbl 1 mM, listed as methylcobalamin.

`C/C1=C2/[N-][C@H]([C@H](CC(N)=O)[C@@]2(C)CCC(=O)NC[C@@H](C)OP(=O)([O-])O[C@H]2[C@@H](O)[C@@H](n3cnc4cc(C)c(C)cc43)O[C@@H]2CO)[C@]2(C)N=C(/C(C)=C3N=C(/C=C4N=C1[C@@H](CCC(N)=O)C\4(C)C)[C@@H](CCC(N)=O)[C@]\3(C)CC(N)=O)[C@@H](CCC(N)=O)[C@]2(C)CC(N)=O.[CH3-].[Co+3]` [MeCbl, methylcobalamin]: the “proportion of apoptotic cells” value was 5.6% in test [1] (20 mM glutamic acid + methylcobalamin); “significantly decreased to the level of the control” in test [1] (20 mM glutamic acid + methylcobalamin, listed as methylcobalamin); 5.9% in test [1] (MeCbl alone (Glutamate −), methylcobalamin). For the same compound, the p-4EBP1/4EBP1 in the test on Akt-mTOR pathway (IL-4 20 ng/ml + MeCbl 100 nM) is recorded as 4.94; in the test with Akt-mTOR pathway (setting [3]), “enhanced”; in the test with Akt-mTOR pathway (setting [4]), 2.78; with Akt-mTOR pathway (IL-4 20 ng/ml + MeCbl 1 mM) it was 6.08; with Akt-mTOR pathway (setting [5]), “activated”. In addition, the p-Akt/Akt in the test with Akt-mTOR pathway (IL-4 20 ng/ml + MeCbl 100 nM) is recorded as 3.58; in the test on Akt-mTOR pathway (setting [4]), 3.78; in the test with Akt-mTOR pathway (IL-4 20 ng/ml + MeCbl 1 mM), 2.59; in the test with Akt-mTOR pathway (setting [5]) it was “decreased”. Moreover, the p-S6K/S6K in the test on Akt-mTOR pathway (IL-4 20 ng/ml + MeCbl 100 nM) is reported as 2.65; in the test on Akt-mTOR pathway (setting [3]), “enhanced”; in the test on Akt-mTOR pathway (setting [4]), 0.33; with Akt-mTOR pathway (IL-4 20 ng/ml + MeCbl 1 mM), 3.12; with Akt-mTOR pathway (setting [5]), “activated”. Besides, the BBB score in test [2] (0 days after surgery (before surgery)) was found to be 21; in test [2] (1 day after surgery), 0.17; in test [2] (7 days after surgery), 8.33; in test [2] (14 days after surgery) it was 15.50; in test [2] (21 days after surgery) it was 16.33; in test [2] (28 days after surgery), 17. For the same compound, the “left-lower-extremity motor function (BBB score) as compared to the untreated group” value in test [2] (14, 21, and 28 days after the surgery) is listed as “significantly improved”.
